Legend:
[1] = target: T1, GST-LXRβ ligand-binding domain (Homo sapiens, UniProt P55055, DUP175-175); assay: TR-FRETβ activity assay (LXRβ-LBD / NCoA3 coactivator peptide, prestimulated with 24(S)-25-epoxycholesterol); format: biochemical; set-up: key to behavior in FRET assay: ag=agonist; ia=inverse agonist; conditions: for EC50: 1 μM 24(S)-25-epoxycholesterol as prestimulating agonist, read-out: FRETβ activity range (EC50); for behavior in FRET assay: agonist or inverse agonist
T1 construct: amino acids 156-461; NP009052; made in house; host or cells: E. coli
T1 sequence (P55055 with tags, fused parts or gaps DUP175-175): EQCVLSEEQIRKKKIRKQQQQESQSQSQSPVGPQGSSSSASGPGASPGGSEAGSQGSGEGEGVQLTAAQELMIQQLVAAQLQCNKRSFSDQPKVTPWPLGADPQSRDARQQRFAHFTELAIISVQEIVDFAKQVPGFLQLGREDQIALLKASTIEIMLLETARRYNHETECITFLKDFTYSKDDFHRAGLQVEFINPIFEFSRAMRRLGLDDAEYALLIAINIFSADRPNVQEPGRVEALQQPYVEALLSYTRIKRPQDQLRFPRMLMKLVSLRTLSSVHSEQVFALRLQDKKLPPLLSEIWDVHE
Procedure, shortened: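 E. coli-expressed GST-LXRβ LBD (aa 156-461) at 76 nM with biotinylated NCoA3 coactivator peptide (400 nM), in 240 mM KCl, BSA and Triton-X-100. Anti-GST-Tb cryptate/streptavidin-XL665 TR-FRET after 1 h equilibration at 4 °C, excitation 340 nm, emission 615 and 665 nm. Run in triplicate.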

LXRβ full length (FL) = target: T2, LXRβ full length (FL) (Homo sapiens, UniProt P55055, DUP175-175); assay: LXR Gal4 reporter transient transfection assay (M2H), Gal4β FL; format: cell-based; conditions: HEK293 cells; read-out: M2H Gal4β FL activity range (EC50)
T2 construct: the full length (FL) proteins of LXRα (amino acids 1-447); NP005684; NP009052; expressed in transfected cells; host or cells: HEK293
T2 sequence (P55055 with tags, fused parts or gaps DUP175-175): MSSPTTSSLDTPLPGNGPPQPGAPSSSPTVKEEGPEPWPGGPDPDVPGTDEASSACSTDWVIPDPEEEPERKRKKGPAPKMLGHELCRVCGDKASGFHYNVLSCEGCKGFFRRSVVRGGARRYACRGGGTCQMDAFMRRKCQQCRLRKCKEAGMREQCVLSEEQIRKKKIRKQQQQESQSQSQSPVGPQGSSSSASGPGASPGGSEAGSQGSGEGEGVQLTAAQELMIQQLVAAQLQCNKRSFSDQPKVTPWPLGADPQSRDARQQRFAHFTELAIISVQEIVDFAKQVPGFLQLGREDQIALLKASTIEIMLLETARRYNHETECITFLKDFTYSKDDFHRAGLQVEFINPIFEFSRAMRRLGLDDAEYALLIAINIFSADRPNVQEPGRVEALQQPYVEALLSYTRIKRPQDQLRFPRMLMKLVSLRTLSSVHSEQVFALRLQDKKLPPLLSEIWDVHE
Procedure, shortened: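 Mammalian two-hybrid in HEK293 cells transiently transfected with LXRα/β full-length or LBD fused to NFkB activation domain, plus GAL4-DBD fusions of SRC1 coactivator or NCoR corepressor domains and a GAL4-responsive firefly luciferase reporter. Compounds added 4 h post-transfection (vehicle ≤0.2% DMSO), 16 h incubation; firefly luciferase normalized to Renilla.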

Row | EC50 [1] [µM] | behavior in FRET assay [1] | EC50 (LXRβ full length (FL)) [µM] | SMILES
1 | 0.1 to 1 | ia | < 0.1 | Cc1cc(C)c(S(=O)(=O)N(Cc2ccc(-c3cccc(CC(=O)O)c3)cc2)C(C)c2ccc(C(F)(F)F)o2)c(C)c1 (centres unmarked) [2/2]
2 | 1 to 10 | ia | 0.1 to 1 | Cc1cc(C)c(S(=O)(=O)N(Cc2ccc(-c3cccc(S(=O)(=O)C(C)(C)C(=O)O)c3)cc2)Cc2ccc(C(F)(F)F)o2)c(C)c1 [5/2]
3 | 0.1 to 1 | ia | < 0.1 | Cc1cc(C)c(S(=O)(=O)N(Cc2ccc(-c3cccc(C(C)(C)C(=O)O)c3)cc2)Cc2ccc(C(F)(F)F)o2)c(C)c1 [7/5]
4 | < 0.1 | ia | < 0.1 | COc1cc(-c2cccc(C(C)(C)C(=O)O)c2)ccc1CN(Cc1ccc(C(F)(F)F)o1)S(=O)(=O)c1c(C)cc(C)cc1C [10/4]
5 | < 0.1 | ia | < 0.1 | Cc1cc(C)c(S(=O)(=O)N(Cc2ccc(C(F)(F)F)o2)Cc2ccc(-c3cccc(C(C)(C)C(=O)O)c3)cc2Cl)c(C)c1 [10/5]
6 | 1 to 10 | ia | 0.1 to 1 | Cc1ccc2ccccc2c1S(=O)(=O)N(Cc1ccc(-c2cccc(S(=O)(=O)CC(=O)O)c2)cc1)Cc1cccc(C(F)(F)F)c1 [11/19]
7 | 0.1 to 1 | ia | < 0.1 | Cc1cc(C)c(S(=O)(=O)N(Cc2ccc(-c3cccc(CC(=O)O)c3)cc2)Cc2ccc(C(F)(F)F)o2)c(C)c1 [Example 2, 2-(4′-(((2,4,6-Trimethyl-N-((5-(trifluoromethyl)furan-2-yl)methyl)phenyl)sulfonamido)methyl)-[1,1′-biphenyl]-3-yl)acetic acid]
8 | 1 to 10 | – | 0.1 to 1 | Cc1cc(C)c(S(=O)(=O)N(Cc2ccc(-c3cccc(S(=O)(=O)CC(=O)O)c3)cc2)Cc2ccc(C(F)(F)F)o2)c(C)c1 [Example 5, 2-((4′-(((2,4,6-Trimethyl-N-((5-(trifluoromethyl)furan-2-yl)methyl)phenyl)sulfonamido)methyl)-[1,1′-biphenyl]-3-yl)sulfonyl)acetic acid]
9 | < 0.1 | ia | < 0.1 | Cc1ccc2ccccc2c1S(=O)(=O)N(Cc1ccc(-c2cccc(C(C)(C)C(=O)O)c2)cc1)Cc1ccc(C(F)(F)F)o1 [Example 24, 2-Methyl-2-(4′-(((2-methyl-N-((5-(trifluoromethyl)furan-2-yl)methyl)naphthalene)-1-sulfonamido)methyl)-[1,1′-biphenyl]-3-yl)propanoic acid]
10 | < 0.1 | ia | < 0.1 | Cc1cc(C)c(S(=O)(=O)N(Cc2ccc(-c3cc(F)c(CO)c(S(C)(=O)=O)c3)cc2)Cc2ccc(C(F)(F)F)o2)c(C)c1 [Example C3/2]
